In patent EP1247803A2, “Indolinone compounds suitable for modulation of protein kinases” (Sugen, Inc., priority 1996, dated 1998):

Experiments:
[1] = target: T1, EGFR (Homo sapiens, UniProt P00533); test: EGFR ELISA assay (in vitro kinase activity, EGFR captured from A431 cell lysate); format: biochemical; parameters: concentration or dose not given beside the values
T1 construct: Add 7 ug A431 cell lysate per well (EGFR source); endogenous in cells; host or cells: A431
Method in brief: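 Receptor autophosphorylation was read by ELISA: anti-phosphotyrosine serum and an HRP-linked secondary with ABTS substrate, absorbance at 410 nm (reference 630 nm). The reaction ran 5 min with 3 µM ATP and 5 mM MnCl2 and was quenched by 20 mM EDTA. Compounds were first incubated 30 min with antibody-captured EGFR from A431 cell lysate.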

[2] = system: MET; test: MET biochemical kinase assay; parameters: species or system human; concentration or dose not given beside the values
Method in brief: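 Plates coated with anti-rabbit Fc bind a rabbit anti-MET antibody that captures receptor from cell lysates; unbound protein is washed off before compound and ATP-containing kinase buffer go in.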

[3] = target: PDGF-R (Homo sapiens, UniProt P09619); test: PDGF-R ELISA; format: cell-based
Excerpt: A PDGF-R ELISA is described in International Patent Publication No. WO 96/40116, published December 19, 1996 by Tang et al.

Chain of PDGF-R (P09619 33-1106, species assumed): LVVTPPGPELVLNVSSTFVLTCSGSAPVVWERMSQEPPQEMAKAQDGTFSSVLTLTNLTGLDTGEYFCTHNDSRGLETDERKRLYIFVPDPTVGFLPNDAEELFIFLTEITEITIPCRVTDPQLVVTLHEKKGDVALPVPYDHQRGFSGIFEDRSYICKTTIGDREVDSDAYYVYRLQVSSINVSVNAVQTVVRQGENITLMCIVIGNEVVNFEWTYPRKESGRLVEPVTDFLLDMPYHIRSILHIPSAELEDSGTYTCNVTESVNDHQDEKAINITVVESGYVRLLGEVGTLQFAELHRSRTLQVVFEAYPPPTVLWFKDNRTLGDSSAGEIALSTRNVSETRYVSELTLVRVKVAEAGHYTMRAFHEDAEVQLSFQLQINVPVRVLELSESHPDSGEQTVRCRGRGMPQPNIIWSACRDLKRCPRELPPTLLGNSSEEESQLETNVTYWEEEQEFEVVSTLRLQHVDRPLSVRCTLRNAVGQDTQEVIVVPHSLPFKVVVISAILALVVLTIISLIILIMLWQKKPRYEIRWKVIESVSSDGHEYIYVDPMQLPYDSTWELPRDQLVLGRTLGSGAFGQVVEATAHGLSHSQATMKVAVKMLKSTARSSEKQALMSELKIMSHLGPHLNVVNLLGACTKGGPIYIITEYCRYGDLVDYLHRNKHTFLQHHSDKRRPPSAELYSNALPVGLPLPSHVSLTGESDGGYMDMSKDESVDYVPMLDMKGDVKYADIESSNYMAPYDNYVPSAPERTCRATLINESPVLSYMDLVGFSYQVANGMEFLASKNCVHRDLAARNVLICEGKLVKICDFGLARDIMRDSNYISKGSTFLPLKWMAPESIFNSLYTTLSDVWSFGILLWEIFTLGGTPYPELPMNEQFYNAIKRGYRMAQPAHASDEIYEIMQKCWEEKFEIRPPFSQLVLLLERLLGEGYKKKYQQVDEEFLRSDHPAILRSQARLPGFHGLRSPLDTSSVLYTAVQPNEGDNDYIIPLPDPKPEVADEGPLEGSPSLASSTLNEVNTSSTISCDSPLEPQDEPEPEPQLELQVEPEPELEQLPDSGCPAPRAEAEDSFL
T1 sequence (P00533 25-1210): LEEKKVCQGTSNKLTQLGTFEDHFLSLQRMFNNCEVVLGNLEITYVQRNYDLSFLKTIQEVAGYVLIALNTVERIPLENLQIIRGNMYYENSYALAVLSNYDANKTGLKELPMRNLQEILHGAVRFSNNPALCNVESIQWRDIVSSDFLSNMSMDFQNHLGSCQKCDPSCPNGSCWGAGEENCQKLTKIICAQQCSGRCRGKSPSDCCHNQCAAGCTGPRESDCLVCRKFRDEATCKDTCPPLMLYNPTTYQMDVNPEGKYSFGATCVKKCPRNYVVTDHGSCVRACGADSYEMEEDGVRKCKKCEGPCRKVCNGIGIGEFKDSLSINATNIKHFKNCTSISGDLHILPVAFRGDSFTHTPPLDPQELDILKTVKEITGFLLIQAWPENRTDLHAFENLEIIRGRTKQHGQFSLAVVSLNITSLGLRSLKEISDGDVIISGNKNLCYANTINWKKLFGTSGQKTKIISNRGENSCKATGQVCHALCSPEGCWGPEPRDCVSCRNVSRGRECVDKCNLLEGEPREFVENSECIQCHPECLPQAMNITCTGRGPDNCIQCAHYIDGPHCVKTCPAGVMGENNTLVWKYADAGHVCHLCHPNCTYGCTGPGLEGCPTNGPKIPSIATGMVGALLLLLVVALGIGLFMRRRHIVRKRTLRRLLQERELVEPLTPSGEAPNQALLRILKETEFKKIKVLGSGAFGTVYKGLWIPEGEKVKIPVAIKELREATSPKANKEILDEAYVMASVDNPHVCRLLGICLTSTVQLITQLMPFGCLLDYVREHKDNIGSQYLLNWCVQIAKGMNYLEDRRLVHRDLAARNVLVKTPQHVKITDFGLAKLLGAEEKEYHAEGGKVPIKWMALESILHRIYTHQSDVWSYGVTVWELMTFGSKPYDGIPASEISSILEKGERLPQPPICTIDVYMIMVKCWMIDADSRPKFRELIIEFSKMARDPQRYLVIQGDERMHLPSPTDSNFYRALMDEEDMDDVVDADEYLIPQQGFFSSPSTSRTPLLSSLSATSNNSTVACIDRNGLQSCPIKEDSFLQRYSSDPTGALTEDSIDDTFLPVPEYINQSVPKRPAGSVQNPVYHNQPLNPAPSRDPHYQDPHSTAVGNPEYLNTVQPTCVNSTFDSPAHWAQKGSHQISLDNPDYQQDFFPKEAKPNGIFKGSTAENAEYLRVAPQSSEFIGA

Row | Compound | Biochem EGFR %Inhibition [1] [%] | Met Kinase % Inhibition [2] [%] | PDGF Kinase %Inhibition [3] [%]
1 | O=C1Nc2c(Br)cc(Br)cc2C1=Cc1ccc(Br)cc1 [10717/A08] | 39.1 | 21.7 | –
2 | COC(=O)c1[nH]c(C)c(C=C2C(=O)Nc3ccc(I)cc32)c1C(=O)OC [10718/B07] | 9.9 | 53.7 | –
3 | O=C1Nc2ccc(I)cc2C1=Cc1ccc(Cl)c([N+](=O)[O-])c1 [10718/B08] | 28.9 | 63.4 | –
4 | Cc1c(O)ccc(C=C2C(=O)Nc3ccc(I)cc32)c1O [10718/B09] | -0.8 | 52.9 | –
5 | O=C1Nc2ccc(I)cc2C1=Cc1ccco1 [10718/B10] | 13.7 | 83.6 | –
6 | O=C1Nc2ccc(I)cc2C1=Cc1ccc([N+](=O)[O-])o1 [10718/B11] | 30.3 | 69.6 | –
7 | CCOC(=O)c1c(C)[nH]c(C=C2C(=O)Nc3ccc(Br)c(C)c32)c1C [10718/C02] | -21.9 | 29.6 | –
8 | COc1cc(Br)c(O)c(C=C2C(=O)Nc3ccc(Br)c(C)c32)c1 [10718/C03] | 41.3 | 95.7 | –
9 | Cc1c(Br)ccc2c1C(=Cc1ccc3ccccc3c1O)C(=O)N2 [10718/C04] | 14.8 | 93.1 | –
10 | O=C1Nc2ccc(S(=O)(=O)Nc3ccc(C(F)(F)F)cc3)cc2C1=Cc1cccnc1 [10729/E08] | 40.1 | 73.7 | 11.0
11 | O=C1Nc2ccc(S(=O)(=O)Nc3ccc(C(F)(F)F)cc3)cc2C1=Cc1ccncc1 [10729/E09] | 29.6 | 85.0 | -11.7
12 | O=C1Nc2ccc(S(=O)(=O)Nc3ccc(C(F)(F)F)cc3)cc2C1=Cc1ccc(N2CCCC2)cc1 [10729/E10] | 50.3 | 7.5 | 11.8
13 | O=C1Nc2ccc(S(=O)(=O)Nc3ccc(C(F)(F)F)cc3)cc2C1=CC1C=CCCC1 (stereo not drawn) [10729/E11] | 25.7 | 50.8 | 22.4
14 | COc1ccc2ccccc2c1C=C1C(=O)Nc2ccc(CCCl)cc21 [10729/G02] | -4.8 | 31.3 | 16.7
15 | COc1ccc(C=C2C(=O)Nc3ccc(CCCl)cc32)c2ccccc12 [10729/G03] | 14.6 | 20.1 | 13.7
16 | CSc1ccc(C=C2C(=O)Nc3ccc(CCCl)cc32)cc1 [10729/G04] | 52.9 | 18.2 | 1.6
17 | Cc1ccsc1C=C1C(=O)Nc2ccc(CCCl)cc21 [10729/G05] | 4.4 | 22.6 | 9.9

Row | Compound | Biochem EGFR %Inhibition [1] [%] | Met Kinase % Inhibition [2] [%] | PDGF Kinase %Inhibition [3] [%]
18 | O=C1Nc2ccc(CCCl)cc2C1=Cc1cccc(Oc2ccccc2)c1 [10729/G06] | 15.2 | 26.0 | 11.8
19 | O=C1Nc2ccc(CCCl)cc2C1=Cc1ccccn1 [10729/G07] | -0.8 | 38.2 | 14.4
20 | O=C1Nc2ccc(CCCl)cc2C1=Cc1cccnc1 [10729/G08] | 6.0 | 39.9 | 0.8
21 | O=C1Nc2ccc(CCCl)cc2C1=Cc1ccncc1 [10729/G09] | 20.8 | 49.6 | 1.9
22 | O=C1Nc2ccc(CCCl)cc2C1=Cc1ccc(N2CCCC2)cc1 [10729/G10] | 60.1 | 26.7 | -13.2
23 | O=C1Nc2ccc(CCCl)cc2C1=CC1C=CCCC1 (stereo not drawn) [10729/G11] | 23.4 | 15.4 | 3.8
24 | COc1ccc(C=C2C(=O)Nc3c(Br)cc(Br)cc32)c(OC)c1OC [10730/A02] | 27.5 | 39.5 | -23.1
25 | COc1cc(OC)c(OC)cc1C=C1C(=O)Nc2c(Br)cc(Br)cc21 [10730/A03] | 34.4 | 62.3 | -11.2
26 | COc1cc(C=C2C(=O)Nc3c(Br)cc(Br)cc32)cc(OC)c1OC [10730/A04] | 37.2 | 70.6 | -5.1
27 | CC(=O)n1cc(C=C2C(=O)Nc3c(Br)cc(Br)cc32)c2ccccc21 [10730/A05] | 18.6 | 42.7 | 2.8
28 | O=C1Nc2c(Br)cc(Br)cc2C1=Cc1coc2ccc(Cl)cc2c1=O [10730/A06] | 6.7 | 61.0 | 6.3
29 | O=C1Nc2c(Br)cc(Br)cc2C1=Cc1ccc(-c2ccccc2Cl)o1 [10730/A07] | 10.4 | 55.4 | -23.9
30 | O=C1Nc2c(Br)cc(Br)cc2C1=Cc1cc2ccccc2nc1Cl [10730/A08] | 10.4 | 69.0 | -6.0
31 | O=C1Nc2c(Br)cc(Br)cc2C1=Cc1coc2c(Br)cc(Br)cc2c1=O [10730/A09] | 1.1 | 69.5 | -4.7
32 | COC1CC(C=C2C(=O)Nc3c(Br)cc(Br)cc32)C(OC)O1 (stereo not drawn) [10730/A10] | 56.1 | 68.7 | 1.0
33 | Cc1cc(C=C2C(=O)Nc3c(Br)cc(Br)cc32)oc1C [10730/A11] | 56.4 | 91.0 | -6.4
